Experimental data published in patent US20200216906A1, “METHODS AND COMPOSITIONS RELATING TO THE DIAGNOSIS AND TREATMENT OF CANCER” (PRESIDENT AND FELLOWS OF HARVARD COLLEGE, priority 2015, published 2020).
“Also recorded” adds a separate entry of the source. Where two headings read alike, the source gives them in different places. Starred links: 1 amine or outer side, 2 acyl side, 3 side chain; linkers in the order of their positions; H or OH if unused. Positions of bridges follow the written chain, without caps; N, C: chain ends. Non-standard residues stand in square brackets, D forms with d. Residues, ends and D or L forms follow the SMILES beside them. Chains are numbered I, II in the order given. Actinocin(9to1) = Cc1c2oc3c(C)ccc(C(=O)[*:1])c3nc-2c(C(=O)[*:2])c(N)c1=O; NMeV = CN[C@H](C(=O)O)C(C)C; Sar = CNCC(=O)O

Assays:
[1] = system: Panc02.13 cells; assay: 3D spheroid growth assay, Panc02.13 (GFP/parental) cells; conditions: for Efficacy in inhibiting cell growth when the Hippo pathway was not inhibited: Hippo-YAP pathway active; for Inhibition in high density growth conditions: 3D-spheroid screen
Description: Cancer cell lines were seeded at a 5×10^3 cells per well in a 96-well ultra-low adherence plates (Costar) and briefly spun down at 1000 rpm for 5 minutes. After 2 days, cells were treated with small molecule inhibitors at varying concentrations. Growth of spheroids was monitored using live cell imaging every 2-3 hours for 4-7 days in the Incucyte FLR™ system (Essen) or as end point assay using CellTiter-Glo™ luminescent cell viability assay (Promega).
A dose response curve for each inhibitor is calculated based on control (no inhibitor/DMSO) treated wells.
Cancer cell lines were seeded at a 5×10^3 cells per well in a 96-well ultra-low adherence plates (Costar) and briefly spun down at 1000 rpm for 5 minutes. After 2 days, cells were treated with small molecule inhibitors at varying concentrations. Growth of spheroids was monitored using live cell imaging every 2-3 hours for 4-7 days in the Incucyte ZOOM™ system (Essen) or as end point assay using CellTiter-Glo™ luminescent cell viability assay (Promega).

[2] = system: Panc02.13 cells expressing vector only (02.13-WT); assay: Kinetic cell growth assay, Panc02.13 cells expressing vector only; assay type: cell-based, human
Description: (§1) Panc02.13 cells were used to express YAPS6A (or vector controls) under sparse and dense cultures. Expression was confirmed by confocal microscopy (data not shown). Suppression of the Hippo pathway by expression of non-phospho, active form of YAP (YAPS6A) sensitized pancreatic cancer cells to gemcitabine and 5-FU (FIGS. 6 and 7). Apoptosis was measured by immunobloting with cleaved caspases 3/7 or PARP. Blots were also stained with anti-β-actin for loading control. The effect of Hippo pathway suppression on gemcitabine and 5-FU senstitization was maintained in 3D spheroid culture (FIG. 8). The effects of eleven cytotoxic drugs on the growth of Panc02.13 cells expressing vector only or YAPS6A construct grown under low or high densities were determined (Table 1).
(§2) The effect of gemcitabine on pancreatic cancer cell growth was studied using a kinetic cell growth assay. Pancreatic cancer cells were plated on 96-well plates (Essen ImageLock, Essen Instruments, MI, US) at varying densities (2-4×10^3 for low density or 15-20×10^3 for high density experiments). Small molecule inhibitors at different doses were added 24 hours after plating and cell confluence was monitored with Incucyte Live-Cell Imaging System and software (Essen Instruments). Confluence was observed every hour for 48-144h or until the control (DMSO only) samples reached 100% confluence.
as §2, with “Kinetic Cell growth assay. The” for “The”, “(2-4X103” for “(2-4×10^3”, “15-20X103” for “15-20×10^3”, “Incucyte™” for “Incucyte”

[3] = system: Panc02.13 cells expressing YAPS6A construct; assay: Kinetic cell growth assay, Panc02.13 cells expressing YAPS6A; assay type: cell-based, human; conditions: for EC50: YAPS6A construct
Description: as §1, §2
Cell lines (Panc02.13, Panc10.05 or Miapaca2) were transfected with YAPS6A constructs (Addgene) using Lipofectamine™ (Invitrogen, Carlsbad, Calif.) following the manufacturer's instructions and 48 hour post-transfection selected in 5-10 μg/ml Blasticidin (InvivoGen, San Diego, Calif.). The clones screened for YAPS6A expression by Western blot. Stable cell lines were maintained in complete medium and 5 μg/ml Blasticidin.
as §2, with “Kinetic Cell growth assay. The” for “The”, “(2-4X103” for “(2-4×10^3”, “15-20X103” for “15-20×10^3”, “Incucyte™” for “Incucyte”

[4] = system: pancreatic cancer cell lines; assay: Kinetic cell growth assay, panel of pancreatic cancer cell lines; assay type: cell-based, human; conditions: for Dependence of cellular response on cell crowding: seven PDAC cell lines, threshold >100 fold difference in EC50; for Density dependence of efficacy: seven pancreatic cancer cell lines, sparse and dense conditions
Description: as §2
FIG. 20A illustrates the kinetic cell growth assay to determine the effect of gemcitabine in a panel of pancreatic cancer cell lines. Cells are plated at low crowding conditions (10-25% confluence) and 24 hours later exposed to gemcitabine in a dose-dependent manner. They are imaged every 1-3 hours until control (vehicle) treated cells reach 100% confluence. This assay is not confounded by the fact that the time required for each cell line to reach 100% confluence may be very different (as the cell lines have different doubling times). A dose response effect of gemcitabine on cell growth for 16 pancreatic cancer cell lines is shown in FIGS. 20B, 3, 31A-31C and 28, where the range of previous studies is also shown. […] Similar responses to gemcitabine were found in liver cancer cell lines (Huh7 and FOCUS) and untransformed (HEK293) cell lines (FIGS. 3, 31A-31C).
as §2, with “Kinetic Cell growth assay. The” for “The”, “(2-4X103” for “(2-4×10^3”, “15-20X103” for “15-20×10^3”, “Incucyte™” for “Incucyte”

[5] = system: Panc02.13 cells expressing the YAPS6A mutant; assay: 3D spheroid growth assay, Panc02.13 cells expressing YAPS6A; assay type: cell-based, human; conditions: YAP activity increased
[6] = Homo sapiens, high density, read-out: High density (EC50, nM) 02.13-WT
[7] = Homo sapiens, low density, read-out: Low density (EC50, nM) 02.13-WT
[8] = Homo sapiens, low density, read-out: Low density (EC50, nM) 02.13-YAPS6A
[9] = high density, read-out: High density (EC50, nM) 02.13-WT
[10] = low density, read-out: Low density (EC50, nM) 02.13-WT
[11] = high density, read-out: High density (EC50, nM) 02.13-YAPS6A
[12] = low density, read-out: Low density (EC50, nM) 02.13-YAPS6A
[13] = Homo sapiens, high density, read-out: High density (EC50, nM) 02.13-YAPS6A

With C1CN1c1nc(N2CC2)nc(N2CC2)n1 [triethylenemelamine] the “Efficacy in inhibiting cell growth when the Hippo pathway was not inhibited” value [1] was “demonstrated efficacy at higher doses”.
In the case of CC(=O)O[C@H]1C(=O)[C@@]2(C)[C@H]([C@H](OC(=O)c3ccccc3)[C@]3(O)C[C@H](OC(=O)[C@H](O)[C@@H](NC(=O)c4ccccc4)c4ccccc4)C(C)=C1C3(C)C)[C@]1(OC(C)=O)CO[C@@H]1C[C@@H]2O [Paclitaxel], the EC50 [2, 6] is reported as 1670 nM, the EC50 [2, 7] is reported as 3 nM and the EC50 [3, 8] is reported as 3 nM. For the same molecule, the “Dependence of cellular response on cell crowding” value (shortened to “Dependence of cellular response”) [4] was “weak or no correlation with cell density” and the “Density dependence of efficacy” value [4] was “largely density independent”.
With CCc1c2c(nc3ccc(OC(=O)N4CCC(N5CCCCC5)CC4)cc13)-c1cc3c(c(=O)n1C2)COC(=O)[C@]3(O)CC [Irrenotecan] the EC50 [2, 9] was 8500 nM, the EC50 [2, 10] was 1070 nM and the EC50 [3, 11] was 1650 nM. For the same molecule, the EC50 [3, 12] was 1700 nM and the “Efficacy in inhibiting cell growth when the Hippo pathway was inhibited” value (“Efficacy … when the Hippo pathway was inhibited” for short) [5] was “increased efficacy in inhibiting cell growth; also recorded: particularly significant inhibitory activity”.
COC(=O)C[C@](O)(CCCC(C)(C)O)C(=O)O[C@@H]1C(OC)=C[C@]23CCCN2CCc2cc4c(cc2[C@H]13)OCO4 [omacetaxine mepesuccinate] was tested, and the “Efficacy in inhibiting cell growth when the Hippo pathway was not inhibited” value [1] was “effective in preventing cancer cell growth independent of the state of Hippo-YAP signaling pathway activity; also recorded: efficacious in inhibiting cell growth”.
In the case of CNC(=O)c1ccc(N2C(=S)N(c3ccc(C#N)c(C(F)(F)F)c3)C(=O)C2(C)C)cc1F [enzalutamide], the “Efficacy in inhibiting cell growth when the Hippo pathway was not inhibited” value [1] is reported as “effective in preventing cancer cell growth independent of the state of Hippo-YAP signaling pathway activity; also recorded: efficacious in inhibiting cell growth”.
With S=c1nc[nH]c2nc[nH]c12 [mercaptopurine] the “Efficacy … when the Hippo pathway was inhibited” value [5] was “increased efficacy in inhibiting cell growth”.
For CC(C)C[C@H](NC(=O)[C@H](CCc1ccccc1)NC(=O)CN1CCOCC1)C(=O)N[C@@H](Cc1ccccc1)C(=O)N[C@@H](CC(C)C)C(=O)[C@@]1(C)CO1 [carfilzomib], the “Inhibition in high density growth conditions” value [1] was “significant inhibition” and the “Efficacy in inhibiting cell growth when the Hippo pathway was not inhibited” value [1] was “effective in preventing cancer cell growth independent of the state of Hippo-YAP signaling pathway activity; also recorded: efficacious in inhibiting cell growth”.
In the case of Cc1c2oc3c(C)ccc(C(=O)N[C@@H]4C(=O)N[C@H](C(C)C)C(=O)N5CCC[C@H]5C(=O)N(C)CC(=O)N(C)[C@@H](C(C)C)C(=O)O[C@@H]4C)c3nc-2c(C(=O)N[C@@H]2C(=O)N[C@H](C(C)C)C(=O)N3CCC[C@H]3C(=O)N(C)CC(=O)N(C)[C@@H](C(C)C)C(=O)O[C@@H]2C)c(N)c1=O [dactinomycin] (I: T[dV]P[Sar][NMeV] / II: T[dV]P[Sar][NMeV]; ester I:1-I:C, II:1-II:C; linker I:N-II:N via Actinocin(9to1)), the “Inhibition in high density growth conditions” value [1] is reported as “significant inhibition” and the “Efficacy in inhibiting cell growth when the Hippo pathway was not inhibited” value [1] is reported as “effective in preventing cancer cell growth independent of the state of Hippo-YAP signaling pathway activity; also recorded: efficacious in inhibiting cell growth”.
With COc1cccc2c1C(=O)c1c(O)c3c(c(O)c1C2=O)C[C@@](O)(C(C)=O)C[C@@H]3O[C@H]1C[C@H](N)[C@H](O)[C@H](C)O1 [daunorubicin] the “Efficacy … when the Hippo pathway was inhibited” value [5] was “increased efficacy in inhibiting cell growth” and the “Efficacy in inhibiting cell growth when the Hippo pathway was not inhibited” value [1] was “efficacious in inhibiting cell growth”.
Nc1nc(Cl)nc2c1ncn2[C@@H]1O[C@H](CO)[C@@H](O)[C@@H]1F [clofarabine] was tested, and the “Efficacy … when the Hippo pathway was inhibited” value [5] was “increased efficacy in inhibiting cell growth”.
In the case of Nc1ccn([C@@H]2O[C@H](CO)[C@@H](O)[C@@H]2O)c(=O)n1 [cytarabine], the “Efficacy … when the Hippo pathway was inhibited” value [5] is reported as “increased efficacy in inhibiting cell growth”.
For CO[C@@]12[C@H](COC(N)=O)C3=C(C(=O)C(C)=C(N)C3=O)N1C[C@@H]1N[C@@H]12 [mitomycin], the “Efficacy … when the Hippo pathway was inhibited” value [5] was “increased efficacy in inhibiting cell growth”.
For Nc1nc2nc[nH]c2c(=S)[nH]1 [tioguanine], the “Efficacy … when the Hippo pathway was inhibited” value [5] was “increased efficacy in inhibiting cell growth”.
For CCCCC(=O)OCC(=O)[C@]1(O)Cc2c(O)c3c(c(O)c2[C@@H](O[C@H]2C[C@H](NC(=O)C(F)(F)F)[C@H](O)[C@H](C)O2)C1)C(=O)c1c(OC)cccc1C3=O [valrubicin], the “Efficacy … when the Hippo pathway was inhibited” value [5] was “increased efficacy in inhibiting cell growth” and the “Efficacy in inhibiting cell growth when the Hippo pathway was not inhibited” value [1] was “efficacious in inhibiting cell growth”.
For C/C(=C\c1csc(C)n1)[C@@H]1C[C@@H]2O[C@]2(C)CCC[C@H](C)[C@H](O)[C@@H](C)C(=O)C(C)(C)[C@@H](O)CC(=O)N1 [ixabepilone], the “Efficacy … when the Hippo pathway was inhibited” value [5] was “increased efficacy in inhibiting cell growth”.
CC[C@@]1(O)C(=O)OCc2c1cc1n(c2=O)Cc2cc3ccccc3nc2-1 [Camtothecin, Camptothecin] showed an EC50 [2, 6] of 15 nM, an EC50 [2, 7] of 5.2 nM and an EC50 [3, 13] of 9 nM. For the same molecule, the EC50 [3, 8] was 6 nM, the “Dependence of cellular response” value [4] was “weak or no correlation with cell density” and the “Density dependence of efficacy” value [4] was “density-dependent”. For the same molecule, the “Efficacy … when the Hippo pathway was inhibited” value [5] was “increased efficacy in inhibiting cell growth”.
With CO[C@H]1C[C@@H]2CC[C@@H](C)[C@@](O)(O2)C(=O)C(=O)N2CCCC[C@H]2C(=O)O[C@H]([C@H](C)C[C@@H]2CC[C@@H](OCCO)[C@H](OC)C2)CC(=O)[C@H](C)/C=C(\C)[C@@H](O)[C@@H](OC)C(=O)[C@H](C)C[C@H](C)/C=C/C=C/C=C/1C [Everolimus] the “Efficacy in inhibiting cell growth when the Hippo pathway was not inhibited” value [1] was “demonstrated efficacy at higher doses”.
O=C1[O][Pt]2([NH][C@@H]3CCCC[C@H]3[NH]2)[O]C1=O [Oxaliplatin] was tested, and the EC50 [2, 9] was 5200 nM, the EC50 [2, 10] was 937 nM and the EC50 [3, 11] was 3180 nM. For the same molecule, the EC50 [3, 12] was 5890 nM, the “Dependence of cellular response” value [4] was “weak or no correlation with cell density” and the “Density dependence of efficacy” value [4] was “largely density independent”.
Epothilone gave an EC50 [2, 9] of 20 nM, an EC50 [2, 10] of under 1 nM and an EC50 [3, 11] of 767 nM. The EC50 [3, 12] was under 1 nM.
With CC(=O)O[C@@]12CO[C@@H]1C[C@H](O)[C@@]1(C)C(=O)[C@H](O)C3=C(C)[C@@H](OC(=O)[C@H](O)[C@@H](NC(=O)OC(C)(C)C)c4ccccc4)C[C@@](O)([C@@H](OC(=O)c4ccccc4)[C@H]21)C3(C)C [Docetaxel] the EC50 [2, 6] was 2400 nM, the EC50 [2, 7] was 3.5 nM and the EC50 [3, 13] was 4820 nM. For the same molecule, the EC50 [3, 8] was 7 nM, the “Dependence of cellular response” value [4] was “weak or no correlation with cell density” and the “Density dependence of efficacy” value [4] was “largely density independent”.
CC(C)C[C@H](NC(=O)[C@H](Cc1ccccc1)NC(=O)c1cnccn1)B(O)O [bortezomib] was tested, and the “Efficacy in inhibiting cell growth when the Hippo pathway was not inhibited” value [1] was “effective in preventing cancer cell growth independent of the state of Hippo-YAP signaling pathway activity; also recorded: efficacious in inhibiting cell growth”.
O=c1[nH]cc(F)c(=O)[nH]1 [5-FU, 5-fluorouracil] was tested, and the EC50 [2, 6] was over 10000 nM, the EC50 [2, 7] was 350 nM and the EC50 [3, 13] was 3000 nM. The “Sensitization by expression of YAPS6A” value ([3]; suppression of the Hippo pathway, high cell density) was “sensitized” and the “Efficacy … when the Hippo pathway was inhibited” value [5] was “increased efficacy in inhibiting cell growth”.
For Cc1ccc(NC(=O)c2ccc(CN3CCN(C)CC3)cc2)cc1Nc1nccc(-c2cccnc2)n1 [imatinib], the “Efficacy … when the Hippo pathway was inhibited” value [5] was “increased efficacy in inhibiting cell growth”.
